Source: the supplement of paper PMC13380429

What was measured:
Vero E6 [1] = experiment: drug sensitivity score (DSS) for viability; higher = more toxic; extreme values may be limits of the assay; conditions: 72 h
Caco-2 [2] = experiment: as above; conditions: 72 h
U2OS [3] = experiment: as above; conditions: 72 h
HepG2 [4] = experiment: as above; conditions: 72 h
Calu-3 [5] = experiment: as above; conditions: 72 h
Vero E6 [6] = experiment: cell viability relative to DMSO; higher = less toxic; conditions: 72 h
Caco-2 [7] = experiment: as above; conditions: 72 h
U2OS [8] = experiment: as above; conditions: 72 h
HepG2 [9] = experiment: as above; conditions: 72 h
Calu-3 [10] = experiment: as above; conditions: 72 h
A549-ACE2 [11] = experiment: drug-induced phospholipidosis relative to tamoxifen; higher = more phospholipidosis
[12] = system: A549-ACE2 infected with SARS-CoV-2; experiment: morphology score (similarity to uninfected cells); higher = more like uninfected cells; conditions: 24 h
Caco-2 [13] = experiment: relative viability EC50 (midpoint between 100% and the lowest measured viability); higher = less toxic; conditions: 72 h
Calu-3 [14] = experiment: as above; conditions: 72 h
[15] = system: A549-ACE2 infected with SARS-CoV-2; experiment: cell count relative to DMSO; higher = less toxic; conditions: 24 h
[16] = system: A549-ACE2 infected with SARS-CoV-2; experiment: SARS-CoV-2 infection rate relative to DMSO; higher = more infection; conditions: 24 h
Vero E6 [17] = experiment: relative viability EC50 (midpoint between 100% and the lowest measured viability); higher = less toxic; conditions: 72 h
U2OS [18] = experiment: as above; conditions: 72 h
HepG2 [19] = experiment: as above; conditions: 72 h
A549-ACE2 [20] = experiment: phospholipidosis EC50; higher = less potent phospholipidosis inducer; conditions: 72 h

CCn1c(-c2nonc2N)nc2cncc(C(=O)N3CC[C@H](N)C3)c21
Conditions | drug sensitivity score | relative viability EC50
Caco-2 [2] | 0.5 | –
Caco-2 [13] | – | > 10000 nM
Calu-3 [5] | 0 | –
Calu-3 [14] | – | > 10 µM
HepG2 [4] | 2.2 | –
U2OS [3] | 3.7 | –
Vero E6 [1] | 4.4 | –

Conditions | SARS-CoV-2 infection rate, [16] [%] | cell count, [15] [%] | cell viability, Caco-2 [7] [%] | cell viability, Calu-3 [10] [%] | cell viability, HepG2 [9] [%] | cell viability, U2OS [8] [%] | cell viability, Vero E6 [6] [%] | morphology score, [12]
1 nM | – | – | 98.7 | 104 | 99.3 | 103 | 107 | –
10 nM | – | – | 99.1 | 94 | 108 | 99.1 | 106 | –
100 nM | – | – | 98.1 | 107 | 95.9 | 101 | 95.3 | –
0.1 µM | 103 | 104 | – | – | – | – | – | 0.19
0.3 µM | 105 | 110 | – | – | – | – | – | 0.18
1000 nM | – | – | 93.5 | 127 | 88.2 | 88.2 | 84.6 | –
1 µM | 109 | 91 | – | – | – | – | – | -0.07
3 µM | 105 | 73 | – | – | – | – | – | -0.12
10000 nM | – | – | 84.2 | 124 | 71.8 | 60.5 | 52.2 | –

drug-induced phospholipidosis [%], A549-ACE2 [11]
Conditions | 0.3 µM | 0.833333 µM | 3.33333 µM | 6.66667 µM | 10 µM | 30 µM
24 h | 0.14 | 1.05 | -2.9 | -4.65 | -1.66 | 4.03
48 h | 0.57 | 0.37 | -3.24 | -3.77 | -1.92 | 7.82
72 h | 0.439 | -0.392 | -3.22 | -2.1 | – | –

O=C(CCCN1CCC2(CC1)C(=O)NCN2c1ccccc1)c1ccc(F)cc1 [spiperone]
Conditions | drug sensitivity score | relative viability EC50 [µM]
Caco-2 [2] | 1.3 | –
Calu-3 [5] | 0.8 | –
HepG2 [4] | 3.2 | –
U2OS [3] | 0 | –
U2OS [18] | – | > 10
Vero E6 [1] | 0 | –
Vero E6 [17] | – | > 10

Conditions | SARS-CoV-2 infection rate, [16] [%] | cell count, [15] [%] | cell viability, Caco-2 [7] [%] | cell viability, Calu-3 [10] [%] | cell viability, HepG2 [9] [%] | cell viability, U2OS [8] [%] | cell viability, Vero E6 [6] [%] | morphology score, [12]
1 nM | – | – | 99.3 | 105 | 91.6 | 100 | 99.8 | –
10 nM | – | – | 92.7 | 84.1 | 108 | 96.6 | 103 | –
100 nM | – | – | 96.2 | 108 | 98.7 | 101 | 96.1 | –
0.3 µM | 102 | 99 | – | – | – | – | – | -0.22
1000 nM | – | – | 99.3 | 103 | 91.1 | 98.5 | 95.8 | –
3 µM | 86 | 114 | – | – | – | – | – | 0.32
10000 nM | – | – | 71.9 | 74.1 | 62.5 | 94.6 | 98.3 | –
10 µM | 31 | 97 | – | – | – | – | – | 0.19
30 µM | 35 | 77 | – | – | – | – | – | 0.03

drug-induced phospholipidosis [%], A549-ACE2 [11]
Conditions | 0.3 µM | 0.833333 µM | 3.33333 µM | 6.66667 µM | 10 µM | 30 µM
24 h | -1.11 | -1.19 | 0.56 | 7.38 | 19.1 | 21
48 h | 1.78 | -0.92 | 2.83 | 6.18 | 13.4 | –
72 h | 1.57 | -0.0916 | 2.59 | 6.4 | 14.9 | –

Cc1ccc(NC(=O)c2ccc(CN3CCN(C)CC3)cc2)cc1Nc1nc(-c2cccnc2)cs1 [masitinib]
Conditions | drug sensitivity score | relative viability EC50
Caco-2 [2] | 1.6 | –
Calu-3 [5] | 1.2 | –
Calu-3 [14] | – | > 10 µM
HepG2 [4] | 2.9 | –
HepG2 [19] | – | 3290 nM
U2OS [3] | 0 | –
U2OS [18] | – | > 10 µM
Vero E6 [1] | 0.1 | –
Vero E6 [17] | – | > 10 µM

Conditions | SARS-CoV-2 infection rate, [16] [%] | cell count, [15] [%] | cell viability, Caco-2 [7] [%] | cell viability, Calu-3 [10] [%] | cell viability, HepG2 [9] [%] | cell viability, U2OS [8] [%] | cell viability, Vero E6 [6] [%] | morphology score, [12]
1 nM | – | – | 104 | 107 | 105 | 106 | 105 | –
10 nM | – | – | 99.5 | 88 | 103 | 101 | 102 | –
100 nM | – | – | 99.1 | 97.4 | 99.6 | 104 | 101 | –
0.3 µM | 98 | 88 | – | – | – | – | – | 0.14
1000 nM | – | – | 97.3 | 97.9 | 101 | 98 | 98 | –
10000 nM | – | – | 72 | 75.1 | 43.9 | 93.2 | 88.9 | –

A549-ACE2 [11], 0.3 µM
Conditions | drug-induced phospholipidosis [%]
24 h | -0.73
48 h | 0.9
72 h | 2.47

O=C(c1ccc(OCCN2CCCCC2)cc1)c1c(-c2ccc(O)cc2)sc2cc(O)ccc12 [raloxifene]
Conditions | drug sensitivity score | phospholipidosis EC50 [µM] | relative viability EC50 [µM]
A549-ACE2 [20] | – | 29.8 | –
Caco-2 [2] | 4.6 | – | –
Calu-3 [5] | 0.5 | – | –
Calu-3 [14] | – | – | > 10
HepG2 [4] | 1 | – | –
U2OS [3] | 0 | – | –
U2OS [18] | – | – | > 10
Vero E6 [1] | 2.3 | – | –

Conditions | SARS-CoV-2 infection rate, [16] [%] | cell count, [15] [%] | cell viability, Caco-2 [7] [%] | cell viability, Calu-3 [10] [%] | cell viability, HepG2 [9] [%] | cell viability, U2OS [8] [%] | cell viability, Vero E6 [6] [%] | morphology score, [12]
1 nM | – | – | 108 | 102 | 91.4 | 93 | 107 | –
10 nM | – | – | 82.9 | 92.4 | 95.2 | 91.3 | 98.8 | –
100 nM | – | – | 100 | 98.1 | 93.6 | 97.7 | 99.3 | –
0.1 µM | 99 | 94 | – | – | – | – | – | -0.07
0.3 µM | 97 | 102 | – | – | – | – | – | 0.17
1000 nM | – | – | 78.3 | 103 | 101 | 95.4 | 94.8 | –
1 µM | 104 | 97 | – | – | – | – | – | -0.1
3 µM | 84 | 106 | – | – | – | – | – | 0.42
10000 nM | – | – | 60.9 | 79.5 | 74.1 | 89.9 | 67.9 | –

drug-induced phospholipidosis [%], A549-ACE2 [11]
Conditions | 0.3 µM | 0.833333 µM | 3.33333 µM | 6.66667 µM | 10 µM | 30 µM
24 h | -1.05 | -0.52 | 10.1 | 22.3 | 37.7 | -2.02
48 h | 3.44 | 1.43 | 14.5 | 28.6 | 41 | 26.2
72 h | 4.4 | 2.6 | 17.4 | 36 | 56 | –

COc1ccc(-c2cc3nccn3c(Nc3ncccc3C(N)=O)n2)cc1OC [BAY-61-3606]
Conditions | drug sensitivity score | relative viability EC50
Caco-2 [2] | 5.2 | –
Caco-2 [13] | – | 1360 nM
Calu-3 [5] | 0 | –
Calu-3 [14] | – | > 10 µM
HepG2 [4] | 7.4 | –
HepG2 [19] | – | 2100 nM
U2OS [3] | 3.4 | –
Vero E6 [1] | 1.3 | –

Conditions | SARS-CoV-2 infection rate, [16] [%] | cell count, [15] [%] | cell viability, Caco-2 [7] [%] | cell viability, Calu-3 [10] [%] | cell viability, HepG2 [9] [%] | cell viability, U2OS [8] [%] | cell viability, Vero E6 [6] [%] | morphology score, [12]
1 nM | – | – | 104 | 108 | 96.1 | 103 | 97.4 | –
10 nM | – | – | 89.8 | 99.1 | 99.7 | 97.4 | 99 | –
100 nM | – | – | 95.8 | 96 | 102 | 101 | 93.9 | –
0.1 µM | 94 | 99 | – | – | – | – | – | 0.21
0.3 µM | 101 | 99 | – | – | – | – | – | 0.16
1000 nM | – | – | 80.8 | 130 | 87.5 | 94.1 | 99.6 | –
1 µM | 107 | 95 | – | – | – | – | – | 0.02
3 µM | 82 | 59 | – | – | – | – | – | 0.48
10000 nM | – | – | 46.1 | 109 | 5 | 53.3 | 70.9 | –

drug-induced phospholipidosis [%], A549-ACE2 [11]
Conditions | 0.3 µM | 0.833333 µM | 3.33333 µM
24 h | -2.52 | -2.28 | 22.8
48 h | 0.47 | -0.01 | –
72 h | 0.971 | -0.217 | –
